{"source": "patent US20030194749A1", "about": "(priority 2002, published 2003)", "key": {"PI 3-kinase": {"biological_target": "PI 3-kinase", "conditions": "cited from earlier work; for fold less effective than wortmannin towards PI 3-kinase: relative to wortmannin"}, "DNA-PKcs": {"biological_target": "T1, DNA-PKcs (Homo sapiens, UniProt P78527)", "T1 construct": "we used nuclear extract for our pull-down experiments; endogenous in cells", "T1 sequence (P78527 whole entry)": "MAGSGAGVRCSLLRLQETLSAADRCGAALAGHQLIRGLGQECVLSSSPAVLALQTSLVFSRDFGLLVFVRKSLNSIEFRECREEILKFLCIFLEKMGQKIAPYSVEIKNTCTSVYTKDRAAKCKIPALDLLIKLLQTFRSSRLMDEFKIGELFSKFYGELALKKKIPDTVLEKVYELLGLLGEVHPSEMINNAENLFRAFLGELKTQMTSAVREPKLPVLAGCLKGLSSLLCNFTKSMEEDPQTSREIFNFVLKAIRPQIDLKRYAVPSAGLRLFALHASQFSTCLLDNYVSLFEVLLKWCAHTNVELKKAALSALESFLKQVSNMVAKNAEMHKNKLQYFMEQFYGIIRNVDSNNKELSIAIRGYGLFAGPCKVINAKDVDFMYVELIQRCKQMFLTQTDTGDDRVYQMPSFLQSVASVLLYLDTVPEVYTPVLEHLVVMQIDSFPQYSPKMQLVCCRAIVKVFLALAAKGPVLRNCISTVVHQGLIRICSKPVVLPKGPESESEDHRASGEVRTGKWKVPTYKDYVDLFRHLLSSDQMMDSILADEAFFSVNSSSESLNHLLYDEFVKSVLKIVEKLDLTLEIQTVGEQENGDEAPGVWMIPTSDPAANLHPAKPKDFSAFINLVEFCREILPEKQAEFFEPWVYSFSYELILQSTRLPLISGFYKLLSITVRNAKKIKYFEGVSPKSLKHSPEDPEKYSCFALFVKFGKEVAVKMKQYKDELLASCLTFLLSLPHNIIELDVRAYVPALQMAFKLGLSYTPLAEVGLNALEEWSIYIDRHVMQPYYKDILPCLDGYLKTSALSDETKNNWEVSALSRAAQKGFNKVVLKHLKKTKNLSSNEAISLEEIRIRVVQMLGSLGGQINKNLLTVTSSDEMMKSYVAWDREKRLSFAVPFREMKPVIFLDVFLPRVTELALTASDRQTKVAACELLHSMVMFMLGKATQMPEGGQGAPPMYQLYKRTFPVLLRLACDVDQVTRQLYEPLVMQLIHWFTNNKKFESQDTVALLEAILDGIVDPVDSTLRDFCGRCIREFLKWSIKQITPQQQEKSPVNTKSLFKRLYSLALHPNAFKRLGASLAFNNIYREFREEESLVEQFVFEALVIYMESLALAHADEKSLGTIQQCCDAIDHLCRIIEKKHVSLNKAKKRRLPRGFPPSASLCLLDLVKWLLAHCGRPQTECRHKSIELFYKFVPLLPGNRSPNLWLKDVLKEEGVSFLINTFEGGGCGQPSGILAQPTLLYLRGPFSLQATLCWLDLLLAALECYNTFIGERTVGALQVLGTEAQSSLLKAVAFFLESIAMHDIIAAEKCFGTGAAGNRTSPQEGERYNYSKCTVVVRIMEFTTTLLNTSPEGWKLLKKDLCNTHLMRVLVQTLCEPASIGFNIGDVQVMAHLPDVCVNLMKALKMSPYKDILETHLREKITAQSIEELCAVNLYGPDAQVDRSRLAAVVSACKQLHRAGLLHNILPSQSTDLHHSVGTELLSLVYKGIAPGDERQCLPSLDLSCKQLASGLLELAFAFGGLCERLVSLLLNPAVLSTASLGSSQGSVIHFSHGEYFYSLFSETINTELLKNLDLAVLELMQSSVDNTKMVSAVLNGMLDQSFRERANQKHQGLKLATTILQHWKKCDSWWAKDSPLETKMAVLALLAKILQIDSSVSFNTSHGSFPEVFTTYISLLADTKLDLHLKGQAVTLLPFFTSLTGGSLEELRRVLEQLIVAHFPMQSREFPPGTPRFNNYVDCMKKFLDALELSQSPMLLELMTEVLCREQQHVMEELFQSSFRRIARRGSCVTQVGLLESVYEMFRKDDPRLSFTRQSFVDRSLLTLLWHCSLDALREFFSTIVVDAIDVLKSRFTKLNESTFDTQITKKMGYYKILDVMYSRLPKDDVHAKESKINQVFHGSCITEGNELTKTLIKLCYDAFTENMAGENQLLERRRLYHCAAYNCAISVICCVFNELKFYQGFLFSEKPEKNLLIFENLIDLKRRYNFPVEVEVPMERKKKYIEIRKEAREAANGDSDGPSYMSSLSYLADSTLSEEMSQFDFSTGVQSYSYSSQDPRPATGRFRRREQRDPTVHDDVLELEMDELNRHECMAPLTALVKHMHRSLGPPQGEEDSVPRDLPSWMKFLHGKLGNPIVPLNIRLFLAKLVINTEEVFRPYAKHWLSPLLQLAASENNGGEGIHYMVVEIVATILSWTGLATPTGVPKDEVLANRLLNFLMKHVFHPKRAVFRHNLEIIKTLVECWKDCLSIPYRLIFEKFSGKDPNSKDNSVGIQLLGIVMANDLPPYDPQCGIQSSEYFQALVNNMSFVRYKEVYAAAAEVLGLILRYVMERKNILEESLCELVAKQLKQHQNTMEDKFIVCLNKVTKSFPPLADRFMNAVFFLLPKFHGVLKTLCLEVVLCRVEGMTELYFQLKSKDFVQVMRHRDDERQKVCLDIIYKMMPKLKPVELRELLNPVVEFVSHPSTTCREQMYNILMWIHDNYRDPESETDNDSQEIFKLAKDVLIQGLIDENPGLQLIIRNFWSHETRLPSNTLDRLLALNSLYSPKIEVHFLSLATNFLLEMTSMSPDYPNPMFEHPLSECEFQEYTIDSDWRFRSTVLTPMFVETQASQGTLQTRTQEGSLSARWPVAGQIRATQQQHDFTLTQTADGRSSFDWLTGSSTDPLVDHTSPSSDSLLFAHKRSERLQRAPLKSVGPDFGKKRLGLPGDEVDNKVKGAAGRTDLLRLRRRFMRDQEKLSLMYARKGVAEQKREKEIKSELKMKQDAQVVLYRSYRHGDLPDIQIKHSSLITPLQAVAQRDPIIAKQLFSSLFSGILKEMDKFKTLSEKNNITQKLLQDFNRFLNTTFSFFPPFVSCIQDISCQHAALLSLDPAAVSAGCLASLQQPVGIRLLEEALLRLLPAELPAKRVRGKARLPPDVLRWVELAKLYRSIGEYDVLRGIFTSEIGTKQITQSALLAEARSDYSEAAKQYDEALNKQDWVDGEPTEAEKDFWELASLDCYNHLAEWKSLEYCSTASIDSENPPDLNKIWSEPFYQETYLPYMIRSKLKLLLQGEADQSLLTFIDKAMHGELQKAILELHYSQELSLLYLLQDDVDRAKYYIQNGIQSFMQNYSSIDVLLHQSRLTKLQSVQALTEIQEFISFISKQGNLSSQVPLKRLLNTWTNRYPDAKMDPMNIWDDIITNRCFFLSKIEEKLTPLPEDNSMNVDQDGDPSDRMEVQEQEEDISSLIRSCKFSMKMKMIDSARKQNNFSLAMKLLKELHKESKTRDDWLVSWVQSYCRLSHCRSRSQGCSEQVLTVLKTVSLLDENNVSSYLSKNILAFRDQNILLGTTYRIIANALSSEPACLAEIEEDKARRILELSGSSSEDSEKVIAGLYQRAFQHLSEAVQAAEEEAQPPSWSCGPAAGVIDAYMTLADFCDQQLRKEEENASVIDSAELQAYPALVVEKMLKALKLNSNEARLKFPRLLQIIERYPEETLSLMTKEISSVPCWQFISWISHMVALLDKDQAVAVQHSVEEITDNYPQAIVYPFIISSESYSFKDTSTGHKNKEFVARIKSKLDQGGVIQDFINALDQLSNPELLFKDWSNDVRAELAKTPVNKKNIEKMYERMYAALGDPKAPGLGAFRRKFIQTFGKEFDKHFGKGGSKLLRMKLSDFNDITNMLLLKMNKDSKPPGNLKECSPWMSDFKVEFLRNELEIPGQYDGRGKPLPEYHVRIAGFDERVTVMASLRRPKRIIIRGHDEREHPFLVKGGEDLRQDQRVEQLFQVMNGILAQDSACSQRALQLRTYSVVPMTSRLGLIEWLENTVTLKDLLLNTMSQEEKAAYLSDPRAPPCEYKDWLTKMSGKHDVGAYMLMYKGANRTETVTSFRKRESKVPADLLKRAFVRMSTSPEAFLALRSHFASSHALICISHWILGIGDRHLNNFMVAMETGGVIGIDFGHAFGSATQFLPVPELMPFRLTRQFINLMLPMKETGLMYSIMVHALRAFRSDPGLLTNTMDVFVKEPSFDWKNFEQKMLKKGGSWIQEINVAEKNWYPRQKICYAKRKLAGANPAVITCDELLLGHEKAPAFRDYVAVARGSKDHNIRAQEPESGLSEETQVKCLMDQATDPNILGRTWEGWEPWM", "test": "Streptavidin-sepharose pull-down from nuclear extract, DNA-PKcs", "assay_type": "binding", "conditions": "HeLa nuclear extract; 150 μM wortmannin or 1 mM ATP", "procedure": "(§1) For the competition with ATP, ATP was directly added to a final concentration of 1 mM ATP.\n(§2) To determine which PIK-related kinases could be pulled-down with BW, we performed several affinity precipitations after incubation with BW concentrations ranging from 0.5-50 μM. As controls, we used the […] compound (negative) and nuclear extracts (positive). We probed a Western blot for the precipitation of ATR, ATM and DNA-PKcs and received a pattern of different sensibility that is related to the IC50s observed in vitro. DNA-PKcs is the most sensitive member to precipitation with BW of the PIK-related kinases we tested and can be precipitated at concentrations as low as 0.5 μM. ATM also seems to be more sensitive to precipitation than ATR, and starts to give a signal at 2 μM. ATR is the least sensitive kinase to precipitation tested, and starts to pull-down at 10 μM.\n(§3) Therefore, we performed pull-down reactions with 30 μM biotin-wortmannin using HeLa nuclear extract. […] The proteins that were pull-down were analyzed via Western blot detecting DNA-PKcs, ATM and biotin-wortmannin."}, "ATM": {"biological_target": "T2, ATM (Homo sapiens, UniProt Q13315)", "T2 construct": "we used nuclear extract for our pull-down experiments; endogenous in cells", "test": "Streptavidin-sepharose pull-down from nuclear extract, ATM", "assay_type": "binding", "conditions": "HeLa nuclear extract; 150 μM wortmannin or 1 mM ATP", "procedure": "as §1, §2, §3"}, "mTOR (FRAP)": {"biological_target": "mTOR (FRAP) (Homo sapiens, UniProt P42345)", "conditions": "cited from earlier work"}, "[1]": {"test": "Stability in buffer systems by thin layer chromatography", "assay_type": "physicochemical", "conditions": "most conditions tested (not 1 M Tris)", "quoted_text": "For thin layer chromatography (TLC), Silica gel glass plates (0.25 mm) were used to separate different components in hexane:ethylacetate (1:2) as solvents. Components were visualized by illumination with long wave ultraviolet light and by dipping into an aqueous solution of ceric ammonium molybdate followed by heating.\nTris based (pH 7.5, 8)and Hepes (pH 7.5, 8) based buffer systems were tested for incubations for 30 min at 4° C. and 30° C."}, "HEK 293T cells": {"tested_on": "HEK 293T cells", "test": "Capability to enter intact cells (protein labeling after cell incubation)", "assay_type": "cell-based, human", "conditions": "50 μM, 45 min", "procedure": "The media and the inhibitory compound were premixed to reduce toxicity and incubated on the cells for 45 min or 1 h.\nAfter 45 min, the cells were harvested and then lysates were generated. 100 μg of protein was separated on a 5-12.5% gradient gel, transferred to PVDF membrane and either analyzed with α-wortmannin sera or with streptavidin HRP to detect biotin-wortmannin."}, "Flag-tagged ATR": {"biological_target": "T3, Flag-tagged ATR (Homo sapiens, UniProt Q13535)", "T3 construct": "expressed in transfected cells", "test": "ATR kinase assay (GST-RAD17 substrate)", "assay_type": "biochemical", "conditions": "3-4 experiments, read from a graph", "procedure": "After the incubation, the beads were washed in 500 μl kinase buffer.\nATR kinase assay: ATR precipitates were incubated with 27.5 μl of kinase buffer+1 μl 32P γ-ATP (1 μCi)+1.5 μl GST-RAD17 substrate (1.5 μg) for exactly 15 min at 30° C. The reactions were stopped by adding 10 μl of 6×SDS sample buffer and boiling the sample for 8 min at 95° C.\nThe dried gel was either exposed overnight to Biomax film or in the phosphoimager cassette for several hours and quantified using the program Image Quant v1.2 from Molecular Dynamics, Sunnyvale, Calif. (USA). Curves were plotted in the program KaleidaGraph v3.5 (Synergy Software, Reading, Pa.) using the Hill equation. […]\nAfter the kinase reactions were carried out, the samples were separated on a 5-12.5% gradient gel. […] Flag-ATR and labeling with biotin-wortmannin were detected by chemiluminescence using α-Flag M5 or streptavidin HRP antibody. The lower half of the gel was stained with coomassie, dried and analyzed by autoradiography.\nAnalysis of substrate phosphorylation by autoradiography allows evaluation of the kinase activity that remains after incubation with different amounts of biotin-wortmannin. […] In the lower lane, the amount of Flag-tagged ATR was determined by using a Flag specific antibody. This signal was used to normalize for equal loading to generate quantitative data. […]"}, "ATR": {"biological_target": "ATR (Homo sapiens, UniProt Q13535)", "conditions": "Sarkaria et al., 1998; cited from earlier work"}}, "note": "Where two headings read alike, the source gives them in different places."}
{"molecule": "COCC1OC(=O)c2coc3c2C1(C)C1=C(C3=O)C2CCC(=O)C2(C)CC1O", "note": "(stereo not shown) [11-O-desacetyl wortmannin]", "values": [{"measurement": "IC50", "setting": "PI 3-kinase", "result": 0.0167, "unit": "µM"}, {"measurement": "fold less effective than wortmannin towards PI 3-kinase", "setting": "PI 3-kinase", "result": 4, "unit": "fold"}, {"measurement": "fold less effective than wortmannin towards PI 3-kinase", "setting": "PI 3-kinase; listed as 0-11-desacetylwortmannin", "result": "about four"}]}
{"molecule": "Nc1ncnc2c1ncn2[C@@H]1O[C@H](COP(=O)(O)OP(=O)(O)OP(=O)(O)O)[C@@H](O)[C@H]1O", "note": "[ATP]", "values": [{"measurement": "effect of pretreatment on pull-down of DNA-PKcs with 30 μM biotin-wortmannin", "setting": "DNA-PKcs", "result": "did not show an effect"}, {"measurement": "effect of pretreatment on pull-down of ATM with 30 μM biotin-wortmannin", "setting": "ATM", "result": "did not show an effect"}]}
{"molecule": "O=c1cc(N2CCOCC2)oc2c(-c3ccccc3)cccc12", "note": "[LY294002, 2-(4-morpholinyl)-S-phenyl-4H-1-benzopyran-4-one]", "values": [{"measurement": "IC50", "setting": "mTOR (FRAP)", "result": "~3", "unit": "µM"}]}
{"molecule": "COC[C@H]1OC(=O)c2coc3c2[C@@]1(C)C1=C(C3=O)[C@@H]2CCC(=O)[C@@]2(C)C[C@H]1OC(C)=O", "note": "[wortmannin, Wortmannin]", "values": [{"measurement": "time in large part stable in buffer", "setting": "[1]", "result": "at least 30 min"}, {"measurement": "capability to enter into intact cells", "setting": "HEK 293T cells", "result": "capable to enter into intact cells"}, {"measurement": "IC50", "setting": "Flag-tagged ATR", "result": 1.8, "unit": "µM"}, {"measurement": "IC50", "setting": "ATR", "result": 1.8, "unit": "µM"}]}
